The record followed here is patent US12496267B2, “Extract of organic humified materials” (priority 2019, dated 2025).

Common to all, as to assay type: cell-based
One experiment relates to TNFα. The experiment in a line: Inflammation: reconstructed human epidermis/PBMC, MSD U-PLEX, TNFα. The settings on record: PBMCs (supernatant); RhE 5% SDS, then culture medium. The procedure: (§1) Potential immune modulatory effects were determined on reconstructed human epidermis (RHE) using a 3D Skin Modell (Cell systems). In the first step the skin patches are stimulated with specific controls and stimuli for a defined time period. In this context it had to be considered that different stimuli require different incubation times. The incubation with heat inactivated C.acnes (10^7 cells/approach) as well as the direct incubation with the test substances (AHE/FA/BIS) was performed for 16h at 37° C. The AHE test substances comprised AHE solutions, comprising either 1%, 2% or 5% AHE in PBS, generated as described in Example 8. The incubation with the positive control (5% SDS) was performed for 20 min (37° C.). After the primary stimulation step skin patches were washed (PBS 3×300 μl) and subjected to a regeneration phase (24h/37° C.) in presence of the indicated substances (CM/AHE/FA/CH/BIS). After this incubation phase the culture medium of each approach was isolated and used to stimulate human PBMCs. Hereby 100 μl of the RHE culture was added cultures of human PBMCs (1×10^6 cells in 300 μl culture medium) and incubated for additional 16 h (37° C.). After this incubation step, PBMCs were separated by centrifugation and the supernatant was saved for the MSD multiplexing platform. In parallel the cells of the RHE culture were subjected to cell lysis (1% SDS, 30 min/4° C. agitation). Cell extracts were saved for the MSD multiplexing platform.
(§2) Using the MSD U-PLEX it is possible to create an individualized multiplex assays for any combination of analytes. Hereby biotinylated capture reagents are coupled to U-PLEX Linkers. The U-PLEX Linkers then self-assemble onto unique spots on the U-PLEX plate. After analytes in the sample bind to the capture reagents, detection antibodies conjugated with electro-chemiluminescent labels (MSD GOLD SULFO-TAG) bind to the analytes to complete the sandwich immunoassay. Using this technology, the following markers were immobilized:
(§3) U-PLEX Human IFN-γ, U-PLEX Human IL-16, U-PLEX Human IL-2, U-PLEX Human IL-4, U-PLEX Human IL-5, U-PLEX Human IL-6, U-PLEX Human IL-8, U-PLEX Human IL-12p70, U-PLEX Human IL-13, U-PLEX Human IL-17A, U-PLEX Human IL-17F, U-PLEX Human IL-22, U-PLEX Human IL-23, U-PLEX Human TNF-α. U-PLEX Human TGF-β1. All steps were performed according to the supplier's protocol.
(§4) As described above, the Reconstructed human epidermis (RhE) was stimulated with the indicated substances and stimuli (Sample # Description, Tables 11-21) for 16 h. Upon this step the RhE was washed and in incubated in a second line with the indicated substances or culture medium. As controls, the RhE was treated in the first line with PBS and subsequently with culture medium. As further controls the PBMCs were treated with culture medium alone, with heat inactivated C. acnes and with pooled supernantant (SN) of the RhEs before stimulation. For Mesoscale analysis, the supernatant of the PBMC culture (PBMCs) was compared with a cell extract of the RhE prepared after the individual incubation steps (RhEs) and the supernatant of the RhEs after the stimulation steps (SN RhEs). RhE treated in the first and second line with culture medium (Rhe NC) can be used as negative control in all settings.

Another experiment deals with IL-1β. The experiment in a line: Inflammation: reconstructed human epidermis/PBMC, MSD U-PLEX, IL-1β. The settings on record: PBMCs (supernatant); RhE 5% SDS, then culture medium. The procedure:
as §1, §2, §3, §4

A further experiment relates to IL-4. Kind of experiment: Inflammation: reconstructed human epidermis/PBMC, MSD U-PLEX, IL-4. The settings on record: PBMCs (supernatant); RhE 5% SDS, then culture medium. The procedure: as §1
(§5) Using the MSD U-PLEX it is possible to create an individualized multiplex assays for any combination of analytes. Hereby biotinylated capture reagents are coupled to U-PLEX Linkers. The U-PLEX Linkers then self-assemble onto unique spots on the U-PLEX plate. After analytes in the sample bind to the capture reagents, detection antibodies conjugated with electro-chemiluminescent labels (MSD GOLD SULFO-TAG) bind to the analytes to complete the sandwich immunoassay. Using this technology, the following markers were immobilized: […]

For another experiment, the system named is IL-5. The experiment in a line: Inflammation: reconstructed human epidermis/PBMC, MSD U-PLEX, IL-5. The note with it: RhE 5% SDS, then culture medium. The procedure: as §1, §2, §3, §4
The next experiment relates to IL-6. The experiment in a line: Inflammation: reconstructed human epidermis/PBMC, MSD U-PLEX, IL-6. The settings on record: RhE 5% SDS, then culture medium. The procedure:
as §1, §2, §3, §4

Another experiment concerns IL-8. Kind of experiment: Inflammation: reconstructed human epidermis/PBMC, MSD U-PLEX, IL-8. The settings on record: RhE 5% SDS, then culture medium. The procedure:
as §1, §2, §3, §4

For another experiment, the system named is IFN-γ. The experiment in a line: Inflammation: reconstructed human epidermis/PBMC, MSD U-PLEX, IFN-γ. The settings on record: PBMCs (supernatant); RhE 5% SDS, then culture medium. The procedure: as §1, §2, §3, §4
For a further experiment, the system named is IL-12p70. Kind of experiment: Inflammation: reconstructed human epidermis/PBMC, MSD U-PLEX, IL-12p70. The settings on record: PBMCs (supernatant); RhE 5% SDS, then culture medium. The procedure: as §1, §2, §3
As described above, the Reconstructed human epidermis (RhE) was stimulated with the indicated substances and stimuli (Sample # Description, Tables 11-21) for 16 h. Upon this step the RhE was washed and in incubated in a second line with the indicated substances or culture medium. As controls, the RhE was treated in the first line with PBS and subsequently with culture medium. […]

A further experiment has as its system IL-13. The experiment in a line: Inflammation: reconstructed human epidermis/PBMC, MSD U-PLEX, IL-13. The settings on record: PBMCs (supernatant); RhE 5% SDS, then culture medium. The procedure:
as §1, §5

As for `CCCCCCCCCCCCOS(=O)(=O)[O-].[Na+]` [Rhe PC, SDS], the TNFα concentration in the experiment with TNFα is 24.0 pg/mL. Also, the IL-1β concentration in the experiment with IL-1β worked out at 1133 pg/mL. Moreover, the IL-4 concentration in the experiment with IL-4 is 9.0 pg/mL. Besides, the IL-5 concentration turned out to be 25.4 pg/mL in the experiment with IL-5 (PBMCs (supernatant)) and 1.0 pg/mL with IL-5 (SN RhEs). The IL-6 concentration with IL-6 (PBMCs (supernatant)) was determined as 12909.3 pg/mL; with IL-6 (SN RhEs), 0.3 pg/mL. Further, the IL-8 concentration was 43111.6 pg/mL in the experiment with IL-8 (PBMCs (supernatant)), 33.5 pg/mL in the experiment with IL-8 (RhEs (cell extract)) and 77.2 pg/mL in the experiment with IL-8 (SN RhEs). Besides, the INF-y concentration in the experiment with IFN-γ is 114.7 pg/mL. For the same molecule, the IL-12p70 concentration in the experiment with IL-12p70 was determined as 63.0 pg/mL. Besides, the IL-13 concentration with IL-13 was found to be 220.6 pg/mL.
